Results from patent US20240240078A1, “NUCLEIC ACID FUNCTIONALIZED METAL NANOPROBE AND PREPARATION METHOD THEREFOR” (SOUTHEAST UNIVERSITY, priority 2021, published 2024).

How the values were obtained:
Escherichia coli [1] = assay: Germicidal effect after 808 nm laser irradiation, culture on solid medium and counting; type: cell-based
Description: (§1) A preparation method for a nucleic acid functionalized metal nanoprobe includes: • (1) deoxyribonucleic acid (DNA) molecules are fully mixed with a diluted nucleic acid intercalator SYBR Green I (2.5×), and a mixture is placed at a room temperature to react in dark for 30 min. • (2) a reaction product of step (1) is fully mixed with 100 μmol/L chloroauric acid solution to obtain a mixed solution A. • (3) the mixed solution A and Escherichia coli are continuously co-incubated in a constant-temperature shaking table for 1 h-12 h to obtain a mixed solution B. A normal control group (a chloroauric acid solution having the same concentration as the experimental group is merely added) and a blank group (an Escherichia coli suspension without any treatment) are set. After incubation, a small amount of the above mixed solution are dripped into the slide glass, and mounting is performed with a cover glass. • (4) A slide glass is placed under a laser confocal fluorescence microscope to be activated. Further, the above mixture is irradiated with 808 nm laser for 5-10 min, is cultured on a solid medium, and counted.

Escherichia coli [2] = assay: Fluorescence imaging of co-incubated bacteria under laser confocal fluorescence microscope; type: cell-based
Description: as §1

## [Au+3].[Cl-].[Cl-].[Cl-].[Cl-].[H+] [chloroauric acid]
Escherichia coli [1]; 808 nm laser 5-10 min, cultured on solid medium and counted, metal cation 100 μmol/L
  germicidal (antibacterial) effect: most of Escherichia coli is killed
Escherichia coli [1]; method of Example 1, 0-300 μmol/L (FIG. 3)
  sterilization effect with increase of concentration: gradually enhanced
Escherichia coli [2]; co-incubated with Escherichia coli 1 h-12 h, metal cation 100 μmol/L
  fluorescence / signal intensity: weak fluorescence
Escherichia coli [2]; method of Example 1, 0, 10, 50, 100, 200, 300 μmol/L tested (FIG. 2)
  concentration at which signal intensity reaches maximum / does not increase any more: 100 µmol/L
Escherichia coli [2]; method of Example 1, 0-300 μmol/L (FIG. 2)
  signal intensity with increase of concentration: enhanced
